In patent publication US6201116A, “Halide indicators” (The Regents of the University of California, priority 1999, dated 2001):

Key:
[1] = Fluorescence spectra / optical properties; format: physicochemical; design: key to Brightness: ++++: very bright; +++: bright; ++: moderate brightness; +: weak
Method: Computations. In vitro fluorescence quenching studies were carried out at peak excitation and emission wavelengths. Microliter aliquots of the sodium salt of the quenching anion (1 M) were added to indicator solution in 5 mM sodium phosphate (pH 7.2, unless indicated otherwise). Fluorescence intensities in the absence (Fo) and presence (F) of quencher anion ([Q]) were measured to give the Stem-Volmer constant (Kq) as defined by:
Fluorescence spectra reveal that LZQ and LMQ have broad excitation and emission peaks with maxima at 424 and 528 nm, respectively. The molar extinction coefficient of LZQ was 11,100 M^-1 cm^-1 at 424 nm and the quantum yield in the absence of I^- was 0.53. Stem-Volmer plots for quenching of LZQ and LMQ by I^- and Cl^-, with data for SPQ shown for comparison, were generated. In water (or saline), LZQ fluorescence was quenched by I^- with a Stem-Volmer constant of 60 M^-1. LZQ fluorescence was not quenched (Stem-Volmer constant <1 M^-1) by Cl^-, NO3^-, phosphate, acetate, Na^+ and K^+. LZQ fluorescence and I^- sensitivity were not affected by pH changes in the range 4.5-8.

cells [2] = assay: Cell loading and intracellular distribution (fluorescence/confocal microscopy); format: cell-based
Method: (§1) Fluorescence microscopy. Fluorescence microscopy measurements were performed as described previously (Chao et al., 1989). Briefly, coverglasses were mounted in a 0.5 ml perfusion chamber in which the cell-free glass surface made contact with an oil immersion objective (Nikon ×40 magnification, numerical aperture[NA] 1.3). Cell fluorescence was excited at 365±10 nm (SPQ) or 420 nm±10 nm (LZQ and LMQ). Emitted fluorescence was detected by a photomultiplier in a Nikon inverted epifluorescence microscope using a 410 nm dichroic mirror and 420 nm barrier filter (SPQ) or a 455 nm dichroic mirror and 500 nm barrier filter (LZQ). For cells colabeled with SPQ and LZQ, SPQ fluorescence was excited at 365±10 nm and detected using a 410 nm dichroic mirror and 455±30 nm interference filter. Confocal fluorescence micrographs were obtained using a Nipkow wheel confocal microscope and cooled CCD camera detector using a ×60 oil immersion objective (Nikon, NA 1.4). LZQ-labeled cells were viewed using a fluorescein filter set (excitation 480±15 nm, emission 520±20 nm).
Transport measurements. Cells were labeled with LZQ or SPQ by hypotonic shock (loading buffer/water 1:1 containing 2 mM LZQ or 7.5 mM SPQ) for 5 min at room temperature or by overnight incubation with indicators in the cell culture medium. Extracellular indicator was removed by washing just prior to measurements. For fluorescence microscopy, glass coverslips were then mounted in a perfusion chamber (flow ~2 ml/min) in which solutions were exchanged using a 4-way valve. For microplate reader measurements, cells in 96-well plates were bathed in […] of the `1st buffer` (see Table 3) and […] of the Cl^- -containing, I^- -free solution was injected into the well to drive Cl^- /I^- exchange (protocol 1). For stimulation of CFTR using protocol 2, […] of a 1:8 mixture of the 1st buffer and the 2nd buffer containing […] forskolin, 2 mM CPT-cAMP and […] IBMX was added.
LZQ and LMQ were loaded into cells efficiently by hypotonic shock or passive incubation. […] As was found for SPQ, LZQ and LMQ were non-toxic to cells in assays of cell growth (2 mM in culture medium for 72 h).

cells [3] = assay: Indicator leakage / cytoplasmic retention; format: cell-based
Method: as §1
A time course of LZQ fluorescence during perfusion with physiological saline at 23° C. was generated. A small group of 20-30 cells was illuminated continuously and fluorescence was detected by a photomultiplier using an ×40, 1.3 NA objective. Cellular fluorescence decreased slowly at a rate of 2.5% per hour. To determine the relative contributions of indicator leakage vs. photobleaching to the slow decline in fluorescence, the perfused cells were illuminated intermittently. […] Background fluorescence (in non-labeled cells) was generally <5% of the fluorescence of LZQ-labeled cells.

[4] = Time-resolved anisotropy in water; format: physicochemical; settings: single-component, n=3
Method: Time resolved fluorescence measurements. Fluorescence lifetime and anisotropy decay measurements were carried out in the frequency domain by cuvette fluorimetry using a Fourier transform fluorimeter (48000 MHF, SLM Instruments, Urbana, Ill.) or by fluorescence microscopy using epifluorescence microscope optics in place of the cuvette compartment (Verkman et al., 1991). For microscopy measurements, impulse-modulated vertically polarized light (442 nm, He--Cd laser 35 mwatts) was reflected onto the sample by a 510 nm dichroic mirror and objective lens; emitted fluorescence was filtered by a 515 nm barrier filter and passed through a rotatable analyzing calcite polarizer. In some experiments, a biconcave lens was introduced just in front of the dichroic mirror to diverge beam diameter in the focal plane to […].
Analysis of lifetime and time-resolved anisotropy was performed by a comparative approach. Generally six pairs of measurements (each acquisition 8 s) were obtained, comparing sample and reference (fluorescein in 0.1 N NaOH, lifetime 4.0 ns) for measurement of lifetime, and parallel and perpendicular orientations of the emission polarizer for measurement of anisotropy decay. […] Median phase and modulation values for paired data were analyzed by nonlinear least-squares for determination of lifetimes and rotational correlation times.

[O-]c1nc2c(N[C@@H]3O[C@H](CO)[C@@H](O)[C@H]3O)ncnc2[n+]2ccccc12 [I, 4-(β-D-ribofuranosylamino)-pyrido [2,1-h] pteridin-11-ium-5-olate]
emission maximum [1]: 528 nm
excitation maximum [1]: 424 nm
Brightness ([1]; Table 4): +++
λem (emission wavelength) ([1]; Table 4): 528 nm
λex (excitation wavelength) ([1]; Table 4): 424 nm
molar extinction coefficient ([1]; at 424 nm): 11,100 M^-1 cm^-1
quantum yield ([1]; in the absence of I^-): 0.53
effect of pH on fluorescence ([1]; pH 4.5-8): not affected
Cellular properties: staining/distribution (cells [2]; Table 4): staining uniform
labeling of cytoplasm and nucleoplasm (cells [2]; all cell types tested: T84, Calu-3, JME, LLC-PK1, MDCK, 3T3 fibroblasts, CHO, HeLa): uniform labeling of the cytoplasm and nucleoplasm
fluorescence intensity in cells vs. SPQ (cells [2]; confocal, substantially higher SPQ concentration used): remarkably more intense
loading into cells (cells [2]; hypotonic shock or passive incubation): efficiently
cytoplasmic retention vs. LMQ (cells [3]): better cytoplasmic retention properties than LMQ
leakage out of cells (cells [3]; microplate section): low rate
rate of decrease of cellular fluorescence (cells [3]; perfusion with physiological saline, 23° C.): 2.5 % per hour
rotational correlation time [4]: 121±3 ps
